Consider five cell lines from the supplement of paper PMC10307832.

Common to all, as to assay: relative viability (nuclei count vs DMSO), 5 days (fraction); higher = more cells survive
Compound in the test “Silmitasertib + AZD7762”: O=C(O)c1ccc2c(c1)nc(Nc1cccc(Cl)c1)c1ccncc12 [Silmitasertib] + NC(=O)Nc1cc(-c2cccc(F)c2)sc1C(=O)N[C@H]1CCCNC1 [AZD7762] (partner 0.2 µM)
The essentials: (§1)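 Relative viability divides the nuclei count in treated wells by that in vehicle wells. Lung cancer cell lines were seeded in 1536-well plates, dosed by pin tool the next day, and fixed and stained after 5 days in one step with final 0.05% Triton X-100, 1% formaldehyde and 1 ug/ml Hoechst. Dosing was a single drug or a fixed anchor-drug dose plus five library-drug doses (not always all listed) in √10 steps, and values are medians of duplicate plates imaged at 4×.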

Compound in test [1]: O=C(O)c1ccc2c(c1)nc(Nc1cccc(Cl)c1)c1ccncc12 [Silmitasertib] + Nc1ncn([C@H]2C[C@H](O)[C@@H](CO)O2)c(=O)n1 [Decitabine] (partner 2 µM)
In a few lines: as §1

Compound in test [2]: O=C(O)c1ccc2c(c1)nc(Nc1cccc(Cl)c1)c1ccncc12 [Silmitasertib] + CC(C)C[C@H](NC(=O)[C@H](Cc1ccccc1)NC(=O)c1cnccn1)B(O)O [Bortezomib] (partner 0.002 µM)
In a few lines: as §1

Compound in test [3]: O=C(O)c1ccc2c(c1)nc(Nc1cccc(Cl)c1)c1ccncc12 [Silmitasertib] + C[C@]1(O)C[C@@H](c2nc(-c3ccc4ccc(-c5ccccc5)nc4c3)c3c(N)nccn32)C1 [Linsitinib] (partner 1 µM)
In a few lines:
as §1

Compound in test [4]: O=C(O)c1ccc2c(c1)nc(Nc1cccc(Cl)c1)c1ccncc12 [Silmitasertib] + N=C(N)NC(=N)NCCc1ccccc1 [Phenformin] (partner 250 µM)
The essentials:
as §1

Regarding NCI-H2405, the relative viability with Silmitasertib + AZD7762 (first compound 0.04 µM) came out at 0.803; with Silmitasertib + AZD7762 (first compound 0.4 µM), 0.754; with Silmitasertib + AZD7762 (first compound 1.265 µM), 0.617; with Silmitasertib + AZD7762 (first compound 4 µM), 0.634; in test [1] (first compound 0.04 µM) it was 0.779; in test [1] (first compound 0.4 µM) it was 0.735. For the same cell line, the relative viability was determined as 0.716 in test [1] (first compound 1.265 µM); 0.794 in test [1] (first compound 4 µM); 0.936 in test [2] (first compound 0.04 µM); 0.792 in test [2] (first compound 0.4 µM); 0.874 in test [2] (first compound 1.265 µM); 0.904 in test [2] (first compound 4 µM). The relative viability in test [3] (first compound 0.04 µM) amounted to 1.16; in test [3] (first compound 0.4 µM), 0.783; in test [3] (first compound 1.265 µM), 0.856; in test [3] (first compound 4 µM) it was 0.887; in test [4] (first compound 0.04 µM) it was 0.435; in test [4] (first compound 0.4 µM), 0.34. The relative viability in test [4] (first compound 1.265 µM) stood at 0.34; in test [4] (first compound 4 µM), 0.301.

For the cell line NCI-H3122, the relative viability with Silmitasertib + AZD7762 (first compound 0.04 µM) was 1.04; with Silmitasertib + AZD7762 (first compound 0.4 µM), 0.705; with Silmitasertib + AZD7762 (first compound 1.265 µM), 0.99; with Silmitasertib + AZD7762 (first compound 4 µM), 0.92; in test [1] (first compound 0.04 µM), 0.514; in test [1] (first compound 0.4 µM), 0.337. Also, the relative viability in test [1] (first compound 1.265 µM) worked out at 0.416; in test [1] (first compound 4 µM) it was 0.511; in test [2] (first compound 0.04 µM) it was 1.11; in test [2] (first compound 0.4 µM) it was 0.935; in test [2] (first compound 1.265 µM), 1.03; in test [2] (first compound 4 µM), 1.12. Further, the relative viability came to 0.957 in test [3] (first compound 0.04 µM); 0.953 in test [3] (first compound 0.4 µM); 0.948 in test [3] (first compound 1.265 µM); 1.15 in test [3] (first compound 4 µM); 0.416 in test [4] (first compound 0.04 µM); 0.365 in test [4] (first compound 0.4 µM). Moreover, the relative viability in test [4] (first compound 1.265 µM) amounted to 0.433; in test [4] (first compound 4 µM), 0.47.

As for PC-3 [JPC-3], the relative viability came to 0.862 in the test with Silmitasertib + AZD7762 (first compound 0.04 µM); 0.723 with Silmitasertib + AZD7762 (first compound 0.4 µM); 0.897 in the test with Silmitasertib + AZD7762 (first compound 1.265 µM); 0.75 in the test with Silmitasertib + AZD7762 (first compound 4 µM); 0.968 in test [1] (first compound 0.04 µM); 0.846 in test [1] (first compound 0.4 µM). Besides, the relative viability in test [1] (first compound 1.265 µM) was 0.836; in test [1] (first compound 4 µM), 0.723; in test [2] (first compound 0.04 µM) it was 0.892; in test [2] (first compound 0.4 µM) it was 0.699; in test [2] (first compound 1.265 µM) it was 0.891; in test [2] (first compound 4 µM) it was 0.826. Further, the relative viability in test [3] (first compound 0.04 µM) was found to be 0.98; in test [3] (first compound 0.4 µM) it was 0.964; in test [3] (first compound 1.265 µM), 1.03; in test [3] (first compound 4 µM) it was 0.986; in test [4] (first compound 0.04 µM), 0.475; in test [4] (first compound 0.4 µM), 0.398. Moreover, the relative viability in test [4] (first compound 1.265 µM) is 0.468; in test [4] (first compound 4 µM) it was 0.424.

Take PC-14: the relative viability with Silmitasertib + AZD7762 (first compound 0.04 µM) came out at 0.336; in the test with Silmitasertib + AZD7762 (first compound 1.265 µM), 0.399; with Silmitasertib + AZD7762 (first compound 4 µM) it was 0.321; in test [1] (first compound 0.04 µM) it was 0.265; in test [1] (first compound 0.4 µM), 0.214; in test [1] (first compound 1.265 µM), 0.271. Also, the relative viability stood at 0.192 in test [1] (first compound 4 µM); 0.946 in test [2] (first compound 0.04 µM); 0.788 in test [2] (first compound 0.4 µM); 0.871 in test [2] (first compound 1.265 µM); 0.819 in test [2] (first compound 4 µM); 0.966 in test [3] (first compound 0.04 µM). The relative viability in test [3] (first compound 0.4 µM) was determined as 0.999; in test [3] (first compound 1.265 µM), 1.01; in test [3] (first compound 4 µM) it was 0.993; in test [4] (first compound 0.04 µM) it was 0.641; in test [4] (first compound 1.265 µM) it was 0.547; in test [4] (first compound 4 µM), 0.125.

In the case of RERF-LC-KJ, the relative viability in the test with Silmitasertib + AZD7762 (first compound 0.04 µM) turned out to be 1.07; in the test with Silmitasertib + AZD7762 (first compound 0.4 µM), 0.785; with Silmitasertib + AZD7762 (first compound 1.265 µM), 0.763; with Silmitasertib + AZD7762 (first compound 4 µM), 0.344; in test [1] (first compound 0.04 µM) it was 0.766; in test [1] (first compound 0.4 µM), 0.627. In addition, the relative viability in test [1] (first compound 1.265 µM) was 0.455; in test [1] (first compound 4 µM), 0.344; in test [2] (first compound 0.04 µM) it was 1.15; in test [2] (first compound 0.4 µM), 0.95; in test [2] (first compound 1.265 µM), 0.779; in test [2] (first compound 4 µM) it was 0.574. The relative viability is 0.858 in test [3] (first compound 0.04 µM); 0.876 in test [3] (first compound 0.4 µM); 0.689 in test [3] (first compound 1.265 µM); 0.672 in test [3] (first compound 4 µM); 0.407 in test [4] (first compound 0.04 µM); 0.378 in test [4] (first compound 0.4 µM). The relative viability in test [4] (first compound 1.265 µM) was 0.31; in test [4] (first compound 4 µM), 0.268.
